Measurements published in US11986540B2, “Compositions including pafolacianine for the identification of malignant lesions” (ON TARGET LABORATORIES, LLC., priority 2022, dated 2024).
Read-outs that look alike come from different tables or passages of the source.

Experiments:
[1] = test system: FR-positive KB cell tumor xenografts; test: Whole body imaging and tissue distribution, FR-positive KB tumor xenografts; type: in vivo, mice
Experimental: Whole body imaging and tissue distribution of pafolacianine and OTL0039 was performed in female nu/nu mice bearing FR-positive KB cell tumor xenografts. […] This observation was consistent with the lower binding affinity of the D-isomer for FR compared with the L-isomer. Tumor fluorescence was brighter in mice receiving pafolacianine compared with other folate-conjugated near infrared dyes such as LS288, IR800 and ZW800.
The optimal dose range for pafolacianine with respect to tumor-to-background ratio in FR-positive tumor-bearing mice was 1 to 30 nmol/mouse, with lower fluorescence intensity observed in tumors at a lower dose (0.3 nmol) and higher fluorescence intensity observed in other tissues at doses above 30 nmol. In a second experiment, pafolacianine whole body imaging and tissue distribution was examined again; however, this experiment was performed in female nu/nu mice bearing FR-negative A549 cell tumor xenografts.

[2] = Plasma protein binding, equilibrium dialysis, human plasma; type: in vitro ADME; details: human, plasma
Experimental: (§1) The plasma protein binding of pafolacianine was studied in vitro in fresh human, Sprague Dawley rat, and Beagle dog plasma using equilibrium dialysis. Pafolacianine was introduced into plasma samples, in duplicate, resulting in a final concentration of 5 μM. The mean (±SD) percentage of plasma protein bound pafolacianine was 99.1±0.1%, 98.6±0.1%, and 93.7±1.5% for rat, dog and human, respectively. Pafolacianine was highly bound to plasma protein in all species examined.

plasma protein = test: as above; type: in vitro ADME; details: human plasma, 5 μM
Experimental: as §1

tumor = test: Tumor to background ratios with different mass doses; type: in vivo, human; details: dose of 0.025 mg per 1 kg bodyweight
From the text: Tumor to background ratios were studied with different mass doses of pafolacianine.

[3] = Embryo-fetal development study in rats; type: in vivo
Experimental: Pafolacianine was intravenously administered at doses of, during the period of organogenesis namely, 0.015, 0.15, and 1.5 mg/kg/day from gestational day (GD) 6 to GD17 in rats (human equivalent doses (HEDs) of 0.002, 0.024 and 0.242 mg/kg/day) and 0.3, 1, and 3 mg/kg/day from GD7 to GD20 in rabbits (HEDs of 0.097, 0.323 and 0.968 mg/kg/day). […] No-Observed-Adverse-Effect-Levels were 1.5 mg/kg/day in rats and 3 mg/kg/day in rabbits.

[4] = Repeat once-weekly IV dose toxicokinetics in dogs; type: in vivo; details: for half-life / AUC(0-inf) / AUC(0-t) / C0 / clearance / Vd: dog, in vivo; for Vd: read-out: Vss
Experimental: Overall, drug concentrations increased with ascending dose, noting that the mean profiles at the two highest dose levels were overlapping. Systemic exposure (AUClast) to pafolacianine was approximately dose-proportional over the range of doses administered (0.9 to 13.9 mg/kg) and within the observed variability (Table 5). […] On both Day 0 and Day 13, CL was slow (relative to hepatic blood flow) and Vss was moderate. Mean T1/2 ranged from approximately 13 to 18 hours.

[5] = female, iv, 0.9 mg/kg, dogs F, 0.9 mg/kg once-weekly IV, Day 0
[6] = female, iv, 0.9 mg/kg, dogs F, 0.9 mg/kg once-weekly IV, Day 13
[7] = female, iv, 9.3 mg/kg, dogs F, 9.3 mg/kg once-weekly IV, Day 0
[8] = female, iv, 9.3 mg/kg, dogs F, 9.3 mg/kg once-weekly IV, Day 13
[9] = female, iv, 13.9 mg/kg, dogs F, 13.9 mg/kg once-weekly IV, Day 0
[10] = female, iv, 13.9 mg/kg, dogs F, 13.9 mg/kg once-weekly IV, Day 13
[11] = male, iv, 0.9 mg/kg, dogs M, 0.9 mg/kg once-weekly IV, Day 0
[12] = male, iv, 0.9 mg/kg, dogs M, 0.9 mg/kg once-weekly IV, Day 13
[13] = male, iv, 9.3 mg/kg, dogs M, 9.3 mg/kg once-weekly IV, Day 0
[14] = male, iv, 9.3 mg/kg, dogs M, 9.3 mg/kg once-weekly IV, Day 13
[15] = male, iv, 13.9 mg/kg, dogs M, 13.9 mg/kg once-weekly IV, Day 0
[16] = male, iv, 13.9 mg/kg, dogs M, 13.9 mg/kg once-weekly IV, Day 13

**Q.** What does the source list for `CC1(C)C(=CC=C2CCCC(C=CC3=[N+](CCCCS(=O)(=O)[O-])c4ccc(S(=O)(=O)O)cc4C3(C)C)=C2Oc2ccc(CC(NC(=O)c3ccc(NCc4cnc5nc(N)[nH]c(=O)c5n4)cc3)C(=O)O)cc2)N(CCCCS(=O)(=O)O)c2ccc(S(=O)(=O)O)cc21` (stereo not shown) [pafolacianine]?
**A.** fluorescence in all other normal tissues ([1]; 2.5 hours after IV 10 nmol): little or no fluorescence signal; fluorescence in kidneys ([1]; 2.5 hours after IV 10 nmol): fluorescence signal also observed in the kidneys; fluorescence in tumors ([1]; 2.5 hours after IV 10 nmol): fluorescence primarily in the tumors; tumor-to-normal tissue fluorescence ratios ([1]; 2.5 hours after IV 10 nmol): excellent; tumor fluorescence compared with other folate-conjugated near infrared dyes (LS288, IR800, ZW800) ([1]; mouse, in vivo): brighter; fraction unbound at 5 μM [2]: 0.063; mean (±SD) percentage of plasma protein bound (plasma protein): 93.7±1.5%; tumor to background ratio (tumor): High; Estimated systemic exposure relative to human exposure at 0.025 mg/kg (AUC comparison) ([3]; rat): 158 times; maternal toxicity and embryo-fetal development toxicity ([3]; rats, 0.015, 0.15, 1.5 mg/kg/day IV): No significant drug-related maternal toxicity and embryo-fetal development toxicity; No-Observed-Adverse-Effect-Level ([3]; rats, IV, GD6 to GD17): 1.5 mg/kg/day; half-life ([4]; both sexes, intravenous, dogs, all doses and days, read-out: Mean T1/2 range): 13 to 18 h; DN AUClast ([4]; dogs F, 0.9 mg/kg once-weekly IV, Day 0): 9.34 (μg · h/ml) (mg/kg); DN AUClast ([4]; dogs F, 0.9 mg/kg once-weekly IV, Day 13): 7.36 (μg · h/ml) (mg/kg); DN AUClast ([4]; dogs F, 9.3 mg/kg once-weekly IV, Day 0): 5.46 (μg · h/ml) (mg/kg); DN AUClast ([4]; dogs F, 9.3 mg/kg once-weekly IV, Day 13): 6.21 (μg · h/ml) (mg/kg); DN AUClast ([4]; dogs F, 13.9 mg/kg once-weekly IV, Day 0): 5.74 (μg · h/ml) (mg/kg); DN AUClast ([4]; dogs F, 13.9 mg/kg once-weekly IV, Day 13): 6.81 (μg · h/ml) (mg/kg); DN AUClast ([4]; dogs M, 0.9 mg/kg once-weekly IV, Day 0): 5.27 (μg · h/ml) (mg/kg); DN AUClast ([4]; dogs M, 0.9 mg/kg once-weekly IV, Day 13): 5.64 (μg · h/ml) (mg/kg); DN AUClast ([4]; dogs M, 9.3 mg/kg once-weekly IV, Day 0): 6.24 (μg · h/ml) (mg/kg); DN AUClast ([4]; dogs M, 9.3 mg/kg once-weekly IV, Day 13): 7.03 (μg · h/ml) (mg/kg); DN AUClast ([4]; dogs M, 13.9 mg/kg once-weekly IV, Day 0): 5.65 (μg · h/ml) (mg/kg); DN AUClast ([4]; dogs M, 13.9 mg/kg once-weekly IV, Day 13): 6.18 (μg · h/ml) (mg/kg); accumulation or changes in TK after repeated dosing ([4]; dogs, once-weekly dosing for 3 weeks): no accumulation or changes in TK were evident; AUC(0-inf) [4, 5]: 10500 ng·h/mL; AUC(0-t) [4, 5]: 8400 ng·h/mL; C0 [4, 5]: 4.75 µg/mL; clearance [4, 5]: 1.59 mL/min/kg; half-life ([4]; female, iv, 0.9 mg/kg, dogs F, 0.9 mg/kg once-weekly IV, Day 0, read-out: T1/2 (converted)): 15 h; Vd [4, 5]: 1.47 L/kg; AUC(0-inf) [4, 6]: 8420 ng·h/mL; AUC(0-t) [4, 6]: 6630 ng·h/mL; C0 [4, 6]: 8.92 µg/mL; clearance [4, 6]: 1.8 mL/min/kg; half-life ([4]; female, iv, 0.9 mg/kg, dogs F, 0.9 mg/kg once-weekly IV, Day 13, read-out: T1/2 (converted)): 13.1 h; Vd [4, 6]: 1.49 L/kg; AUC(0-inf) [4, 7]: 69300 ng·h/mL; AUC(0-t) [4, 7]: 50800 ng·h/mL; C0 [4, 7]: 54.9 µg/mL; clearance [4, 7]: 2.35 mL/min/kg; half-life ([4]; female, iv, 9.3 mg/kg, dogs F, 9.3 mg/kg once-weekly IV, Day 0, read-out: T1/2 (converted)): 15.2 h; Vd [4, 7]: 2.38 L/kg; AUC(0-inf) [4, 8]: 76600 ng·h/mL; AUC(0-t) [4, 8]: 57700 ng·h/mL; C0 [4, 8]: 67.8 µg/mL; clearance [4, 8]: 2.11 mL/min/kg; half-life ([4]; female, iv, 9.3 mg/kg, dogs F, 9.3 mg/kg once-weekly IV, Day 13, read-out: T1/2 (converted)): 14.3 h; Vd [4, 8]: 1.94 L/kg; AUC(0-inf) [4, 9]: 109000 ng·h/mL; AUC(0-t) [4, 9]: 79800 ng·h/mL; C0 [4, 9]: 79.6 µg/mL; clearance [4, 9]: 2.15 mL/min/kg; half-life ([4]; female, iv, 13.9 mg/kg, dogs F, 13.9 mg/kg once-weekly IV, Day 0, read-out: T1/2 (converted)): 15.3 h; Vd [4, 9]: 2.2 L/kg; AUC(0-inf) [4, 10]: 129000 ng·h/mL; AUC(0-t) [4, 10]: 94700 ng·h/mL; C0 [4, 10]: 104 µg/mL; clearance [4, 10]: 1.81 mL/min/kg; half-life ([4]; female, iv, 13.9 mg/kg, dogs F, 13.9 mg/kg once-weekly IV, Day 13, read-out: T1/2 (converted)): 15.3 h; Vd [4, 10]: 1.83 L/kg; AUC(0-inf) [4, 11]: 6400 ng·h/mL; AUC(0-t) [4, 11]: 4740 ng·h/mL; C0 [4, 11]: 4.66 µg/mL; clearance [4, 11]: 2.39 mL/min/kg; half-life ([4]; male, iv, 0.9 mg/kg, dogs M, 0.9 mg/kg once-weekly IV, Day 0, read-out: T1/2 (converted)): 14.8 h; Vd [4, 11]: 2.31 L/kg; AUC(0-inf) [4, 12]: 7360 ng·h/mL; AUC(0-t) [4, 12]: 5070 ng·h/mL; C0 [4, 12]: 5.73 µg/mL; clearance [4, 12]: 2.09 mL/min/kg; half-life ([4]; male, iv, 0.9 mg/kg, dogs M, 0.9 mg/kg once-weekly IV, Day 13, read-out: T1/2 (converted)): 17.6 h; Vd [4, 12]: 2.42 L/kg; AUC(0-inf) [4, 13]: 81200 ng·h/mL; AUC(0-t) [4, 13]: 58000 ng·h/mL; C0 [4, 13]: 62.1 µg/mL; clearance [4, 13]: 1.92 mL/min/kg; half-life ([4]; male, iv, 9.3 mg/kg, dogs M, 9.3 mg/kg once-weekly IV, Day 0, read-out: T1/2 (converted)): 16.4 h; Vd [4, 13]: 2.1 L/kg; AUC(0-inf) [4, 14]: 85100 ng·h/mL; AUC(0-t) [4, 14]: 65400 ng·h/mL; C0 [4, 14]: 72.6 µg/mL; clearance [4, 14]: 1.84 mL/min/kg; half-life ([4]; male, iv, 9.3 mg/kg, dogs M, 9.3 mg/kg once-weekly IV, Day 13, read-out: T1/2 (converted)): 13.3 h; Vd [4, 14]: 1.6 L/kg; AUC(0-inf) [4, 15]: 110000 ng·h/mL; AUC(0-t) [4, 15]: 78500 ng·h/mL; C0 [4, 15]: 81.8 µg/mL; clearance [4, 15]: 2.13 mL/min/kg; half-life ([4]; male, iv, 13.9 mg/kg, dogs M, 13.9 mg/kg once-weekly IV, Day 0, read-out: T1/2 (converted)): 16.2 h; Vd [4, 15]: 2.35 L/kg; AUC(0-inf) [4, 16]: 117000 ng·h/mL; AUC(0-t) [4, 16]: 85900 ng·h/mL; C0 [4, 16]: 108 µg/mL; clearance [4, 16]: 2 mL/min/kg; half-life ([4]; male, iv, 13.9 mg/kg, dogs M, 13.9 mg/kg once-weekly IV, Day 13, read-out: T1/2 (converted)): 15 h; Vd [4, 16]: 2.02 L/kg
